This is an account of results in ChEMBL document CHEMBL5465560, “Selectivity Literature for EUbOPEN Chemogenomic Library” (2024).

In assay [1] the target is Phosphatidylinositol 4-phosphate 3-kinase C2 domain-containing subunit beta (Homo sapiens) (UniProt O00750). Kind of assay: Selectivity interaction (Adapta Assay) EUB0001632a PIK3C2B. Conditions: at 10 µM.
Assay [2] deals with T1, Megakaryocyte-associated tyrosine-protein kinase (Homo sapiens) (UniProt P42679).
T1 sequence (whole entry): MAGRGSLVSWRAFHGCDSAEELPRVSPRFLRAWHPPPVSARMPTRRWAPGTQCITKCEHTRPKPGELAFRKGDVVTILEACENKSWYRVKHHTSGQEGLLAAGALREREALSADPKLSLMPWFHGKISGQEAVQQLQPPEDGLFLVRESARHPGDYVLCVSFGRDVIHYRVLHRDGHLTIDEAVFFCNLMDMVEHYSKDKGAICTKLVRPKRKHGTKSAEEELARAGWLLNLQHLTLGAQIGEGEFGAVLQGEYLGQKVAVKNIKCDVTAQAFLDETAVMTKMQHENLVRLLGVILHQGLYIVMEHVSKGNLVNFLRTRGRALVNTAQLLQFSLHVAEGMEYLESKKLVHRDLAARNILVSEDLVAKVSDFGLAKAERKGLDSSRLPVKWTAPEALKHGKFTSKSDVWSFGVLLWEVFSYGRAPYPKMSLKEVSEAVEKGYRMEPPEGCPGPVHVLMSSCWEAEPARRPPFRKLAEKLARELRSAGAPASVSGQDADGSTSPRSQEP
Nature of the assay: Selectivity interaction (KinomeScan (DiscoverX)) EUB0000595a MATK. Conditions: at 10 µM.

The target in assay [3] is Casein kinase I isoform gamma-2 (Homo sapiens) (UniProt P78368). Nature of the assay: Selectivity interaction (SelectScreen profiling (Invitrogen)) EUB0000607a CSNK1G2. Particulars: at 2 µM.
Chain of Casein kinase I isoform gamma-2 (Homo sapiens) (P78368 whole entry, looked up, canonical isoform): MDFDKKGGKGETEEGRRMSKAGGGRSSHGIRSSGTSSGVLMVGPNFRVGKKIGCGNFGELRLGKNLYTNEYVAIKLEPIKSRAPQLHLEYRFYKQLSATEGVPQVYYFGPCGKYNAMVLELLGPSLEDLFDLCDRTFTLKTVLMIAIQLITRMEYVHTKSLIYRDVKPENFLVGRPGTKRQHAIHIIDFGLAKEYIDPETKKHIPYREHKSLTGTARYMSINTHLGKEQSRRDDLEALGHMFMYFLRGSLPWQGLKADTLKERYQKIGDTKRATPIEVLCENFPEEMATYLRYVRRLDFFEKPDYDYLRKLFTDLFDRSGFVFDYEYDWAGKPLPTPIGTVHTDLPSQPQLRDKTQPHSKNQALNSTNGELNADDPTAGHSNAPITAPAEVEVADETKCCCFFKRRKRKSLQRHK
For assay [4], the target named is Non-receptor tyrosine-protein kinase TYK2 (Homo sapiens, UniProt P29597). Nature of the assay: Selectivity interaction (KinomeScan (DiscoverX)) EUB0000607a TYK2. Particulars: at 10 µM.
For assay [5], the target named is RAC-gamma serine/threonine-protein kinase (Homo sapiens, UniProt Q9Y243). Conditions: at 10 µM.
Chain of RAC-gamma serine/threonine-protein kinase (Q9Y243 whole entry): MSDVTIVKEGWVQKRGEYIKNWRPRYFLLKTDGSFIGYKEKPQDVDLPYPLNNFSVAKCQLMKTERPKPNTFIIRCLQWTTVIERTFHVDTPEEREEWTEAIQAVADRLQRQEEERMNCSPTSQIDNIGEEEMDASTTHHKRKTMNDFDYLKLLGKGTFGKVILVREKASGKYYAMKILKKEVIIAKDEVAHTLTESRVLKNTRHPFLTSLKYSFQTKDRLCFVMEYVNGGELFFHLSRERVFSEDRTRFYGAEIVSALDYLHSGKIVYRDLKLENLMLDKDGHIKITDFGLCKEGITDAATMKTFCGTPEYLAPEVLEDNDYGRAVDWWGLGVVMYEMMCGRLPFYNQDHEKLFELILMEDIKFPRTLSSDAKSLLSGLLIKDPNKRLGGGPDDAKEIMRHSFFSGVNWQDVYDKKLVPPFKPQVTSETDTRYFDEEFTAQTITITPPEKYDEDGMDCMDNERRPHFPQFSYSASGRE
The target of assay [6] is Platelet-derived growth factor receptor alpha (Homo sapiens, UniProt P16234). Kind of assay: Selectivity interaction (Kinase panel (Invitrogen)) EUB0000639a PDGFRA. Particulars: at 200 nM.
Assay [7] deals with Ribosomal protein S6 kinase alpha-3 (Homo sapiens, UniProt P51812). Kind of assay: Selectivity interaction (ActivX KiNativ screen (kinase selectivity in THP-1 cell lysates)) EUB0000639a RPS6KA3. Particulars: lysate, at 5 µM. Type of assay: subcellular.
Chain of Ribosomal protein S6 kinase alpha-3 (P51812 whole entry): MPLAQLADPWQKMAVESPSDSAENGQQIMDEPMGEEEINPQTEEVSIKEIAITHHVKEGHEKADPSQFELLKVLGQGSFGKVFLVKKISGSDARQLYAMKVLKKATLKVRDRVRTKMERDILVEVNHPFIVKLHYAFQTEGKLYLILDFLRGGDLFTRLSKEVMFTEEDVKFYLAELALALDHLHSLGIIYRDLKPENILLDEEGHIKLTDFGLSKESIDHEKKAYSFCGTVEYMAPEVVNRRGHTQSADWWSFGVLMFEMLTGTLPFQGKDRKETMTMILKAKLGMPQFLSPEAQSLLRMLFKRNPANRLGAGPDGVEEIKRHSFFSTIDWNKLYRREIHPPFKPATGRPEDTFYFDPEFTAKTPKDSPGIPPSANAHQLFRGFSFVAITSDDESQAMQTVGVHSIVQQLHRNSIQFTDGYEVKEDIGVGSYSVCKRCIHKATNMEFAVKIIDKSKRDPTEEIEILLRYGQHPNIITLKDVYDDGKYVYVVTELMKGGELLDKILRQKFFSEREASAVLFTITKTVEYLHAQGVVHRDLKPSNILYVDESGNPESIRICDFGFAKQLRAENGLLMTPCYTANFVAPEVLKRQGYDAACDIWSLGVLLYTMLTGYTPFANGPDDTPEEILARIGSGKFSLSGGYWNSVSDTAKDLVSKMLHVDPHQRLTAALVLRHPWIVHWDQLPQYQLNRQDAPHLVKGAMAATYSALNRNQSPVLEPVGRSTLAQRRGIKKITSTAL
In assay [8] the target is T2, Histone-arginine methyltransferase CARM1 (Homo sapiens) (UniProt Q86X55).
T2 sequence (whole entry): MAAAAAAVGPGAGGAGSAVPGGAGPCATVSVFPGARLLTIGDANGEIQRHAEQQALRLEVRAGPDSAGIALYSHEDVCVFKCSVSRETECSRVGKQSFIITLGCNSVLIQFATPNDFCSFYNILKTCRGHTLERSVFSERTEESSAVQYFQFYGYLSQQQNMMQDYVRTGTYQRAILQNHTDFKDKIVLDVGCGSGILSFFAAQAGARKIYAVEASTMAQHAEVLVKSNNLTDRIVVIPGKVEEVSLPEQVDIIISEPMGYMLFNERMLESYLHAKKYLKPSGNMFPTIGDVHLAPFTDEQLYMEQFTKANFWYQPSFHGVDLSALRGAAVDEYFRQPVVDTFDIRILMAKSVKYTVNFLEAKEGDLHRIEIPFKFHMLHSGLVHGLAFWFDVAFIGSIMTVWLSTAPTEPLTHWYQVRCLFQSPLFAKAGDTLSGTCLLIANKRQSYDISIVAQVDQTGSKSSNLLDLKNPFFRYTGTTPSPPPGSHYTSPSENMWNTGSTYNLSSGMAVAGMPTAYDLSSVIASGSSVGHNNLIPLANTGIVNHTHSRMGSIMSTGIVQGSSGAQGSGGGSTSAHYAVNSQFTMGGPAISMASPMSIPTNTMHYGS
Particulars: KMS-28BM, at 3 µM.

In assay [9] the target is Activin receptor type-2A (Homo sapiens) (UniProt P27037). Nature of the assay: Selectivity interaction (ProQinase) EUB0000171b ACVR2A.
Chain of Activin receptor type-2A (Homo sapiens) (P27037 whole entry): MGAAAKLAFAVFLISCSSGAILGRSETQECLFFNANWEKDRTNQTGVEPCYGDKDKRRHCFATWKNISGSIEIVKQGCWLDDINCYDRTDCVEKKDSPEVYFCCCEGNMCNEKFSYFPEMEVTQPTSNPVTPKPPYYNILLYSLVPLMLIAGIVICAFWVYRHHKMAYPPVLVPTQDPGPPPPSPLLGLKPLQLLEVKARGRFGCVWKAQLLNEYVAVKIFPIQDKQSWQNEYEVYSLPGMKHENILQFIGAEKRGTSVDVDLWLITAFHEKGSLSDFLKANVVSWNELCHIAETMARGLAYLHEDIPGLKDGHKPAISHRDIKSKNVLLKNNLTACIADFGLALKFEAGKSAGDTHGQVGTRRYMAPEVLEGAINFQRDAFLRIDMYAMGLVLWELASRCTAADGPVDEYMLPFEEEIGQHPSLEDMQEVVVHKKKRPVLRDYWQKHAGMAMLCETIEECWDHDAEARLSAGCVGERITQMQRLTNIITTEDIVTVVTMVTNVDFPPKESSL
The nature of assay [10]: Selectivity interaction (KinomeScan (DiscoverX)) EUB0001049a CDPK1. Particulars: at 1 µM.
Assay [11] addresses T2, Histone-arginine methyltransferase CARM1 (Homo sapiens). Nature of the assay: Selectivity interaction (Methyltransferase screen (radiometric assays, panel of 8 PRMTs, 21 protein lysine methyltransferases, 3 DNA methyltransferases, and one RNA methyltransferase)) EUB0000272b CARM1.
The target in assay [12] is Fibroblast growth factor receptor 4 (Homo sapiens, UniProt P22455). Kind of assay: Selectivity interaction (KinomeScan (DiscoverX)) EUB0001079a FGFR4. Particulars: at 1 µM.
The target in assay [13] is Proto-oncogene tyrosine-protein kinase receptor Ret (Homo sapiens, UniProt P07949). Nature of the assay: Selectivity interaction (Millipore kinase profiler) EUB0000124b RET. Particulars: at 10 µM.
Chain of Proto-oncogene tyrosine-protein kinase receptor Ret (P07949 whole entry): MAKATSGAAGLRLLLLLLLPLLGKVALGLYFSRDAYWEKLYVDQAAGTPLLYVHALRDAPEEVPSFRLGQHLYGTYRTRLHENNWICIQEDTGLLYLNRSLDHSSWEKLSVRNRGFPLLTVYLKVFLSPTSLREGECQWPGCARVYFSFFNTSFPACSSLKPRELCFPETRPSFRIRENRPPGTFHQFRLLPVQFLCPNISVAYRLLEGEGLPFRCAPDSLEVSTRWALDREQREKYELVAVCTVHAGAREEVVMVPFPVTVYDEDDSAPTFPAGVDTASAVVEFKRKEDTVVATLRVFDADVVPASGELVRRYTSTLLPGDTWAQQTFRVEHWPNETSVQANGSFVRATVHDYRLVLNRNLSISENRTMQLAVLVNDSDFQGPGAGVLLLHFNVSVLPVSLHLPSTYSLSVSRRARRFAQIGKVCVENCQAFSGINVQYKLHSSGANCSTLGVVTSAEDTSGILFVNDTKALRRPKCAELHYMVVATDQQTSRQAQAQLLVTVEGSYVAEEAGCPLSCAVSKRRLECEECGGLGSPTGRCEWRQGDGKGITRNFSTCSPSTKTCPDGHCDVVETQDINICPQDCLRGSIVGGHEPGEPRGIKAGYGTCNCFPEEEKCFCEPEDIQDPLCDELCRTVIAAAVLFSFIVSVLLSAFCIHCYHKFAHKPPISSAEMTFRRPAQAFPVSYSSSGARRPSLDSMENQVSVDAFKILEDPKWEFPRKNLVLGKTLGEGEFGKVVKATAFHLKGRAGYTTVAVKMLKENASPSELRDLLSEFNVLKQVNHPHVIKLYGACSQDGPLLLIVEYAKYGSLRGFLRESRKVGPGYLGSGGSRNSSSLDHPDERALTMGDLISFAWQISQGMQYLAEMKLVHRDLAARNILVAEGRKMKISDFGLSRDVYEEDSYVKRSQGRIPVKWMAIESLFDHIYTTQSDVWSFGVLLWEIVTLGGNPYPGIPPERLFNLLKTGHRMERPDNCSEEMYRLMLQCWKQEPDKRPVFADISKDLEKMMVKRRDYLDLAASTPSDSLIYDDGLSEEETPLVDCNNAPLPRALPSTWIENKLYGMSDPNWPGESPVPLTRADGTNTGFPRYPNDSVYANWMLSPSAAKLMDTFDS
The target of assay [14] is T3, Serine/threonine-protein kinase D2 (Homo sapiens) (UniProt Q9BZL6).
T3 sequence (whole entry): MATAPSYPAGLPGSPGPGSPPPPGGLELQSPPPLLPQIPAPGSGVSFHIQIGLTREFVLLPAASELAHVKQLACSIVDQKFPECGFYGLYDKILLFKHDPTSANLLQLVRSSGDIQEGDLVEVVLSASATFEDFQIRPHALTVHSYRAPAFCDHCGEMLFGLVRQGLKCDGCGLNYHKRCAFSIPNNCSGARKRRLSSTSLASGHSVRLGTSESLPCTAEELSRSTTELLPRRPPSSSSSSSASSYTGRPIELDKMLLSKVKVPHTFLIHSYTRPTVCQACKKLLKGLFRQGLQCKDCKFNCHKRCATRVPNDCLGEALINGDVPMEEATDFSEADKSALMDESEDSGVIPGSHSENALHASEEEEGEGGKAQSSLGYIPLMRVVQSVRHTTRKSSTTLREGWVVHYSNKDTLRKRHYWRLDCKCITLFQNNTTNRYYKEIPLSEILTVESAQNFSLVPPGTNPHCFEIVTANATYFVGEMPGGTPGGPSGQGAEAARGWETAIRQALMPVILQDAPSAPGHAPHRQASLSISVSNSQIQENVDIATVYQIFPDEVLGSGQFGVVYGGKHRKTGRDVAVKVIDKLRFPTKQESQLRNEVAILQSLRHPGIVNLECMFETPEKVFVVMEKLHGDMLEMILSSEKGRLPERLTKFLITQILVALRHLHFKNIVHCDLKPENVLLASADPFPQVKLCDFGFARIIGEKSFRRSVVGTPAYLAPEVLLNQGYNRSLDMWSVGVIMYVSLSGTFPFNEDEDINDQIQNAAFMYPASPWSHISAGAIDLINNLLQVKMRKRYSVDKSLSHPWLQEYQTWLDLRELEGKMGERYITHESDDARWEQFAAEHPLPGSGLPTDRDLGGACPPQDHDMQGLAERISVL
Nature of the assay: Selectivity interaction (KinomeScan (DiscoverX)) EUB0000229b PRKD2. Particulars: at 10 µM.

Chain of Phosphatidylinositol 4-phosphate 3-kinase C2 domain-containing subunit beta (Homo sapiens) (O00750 whole entry, the tested form may be a part): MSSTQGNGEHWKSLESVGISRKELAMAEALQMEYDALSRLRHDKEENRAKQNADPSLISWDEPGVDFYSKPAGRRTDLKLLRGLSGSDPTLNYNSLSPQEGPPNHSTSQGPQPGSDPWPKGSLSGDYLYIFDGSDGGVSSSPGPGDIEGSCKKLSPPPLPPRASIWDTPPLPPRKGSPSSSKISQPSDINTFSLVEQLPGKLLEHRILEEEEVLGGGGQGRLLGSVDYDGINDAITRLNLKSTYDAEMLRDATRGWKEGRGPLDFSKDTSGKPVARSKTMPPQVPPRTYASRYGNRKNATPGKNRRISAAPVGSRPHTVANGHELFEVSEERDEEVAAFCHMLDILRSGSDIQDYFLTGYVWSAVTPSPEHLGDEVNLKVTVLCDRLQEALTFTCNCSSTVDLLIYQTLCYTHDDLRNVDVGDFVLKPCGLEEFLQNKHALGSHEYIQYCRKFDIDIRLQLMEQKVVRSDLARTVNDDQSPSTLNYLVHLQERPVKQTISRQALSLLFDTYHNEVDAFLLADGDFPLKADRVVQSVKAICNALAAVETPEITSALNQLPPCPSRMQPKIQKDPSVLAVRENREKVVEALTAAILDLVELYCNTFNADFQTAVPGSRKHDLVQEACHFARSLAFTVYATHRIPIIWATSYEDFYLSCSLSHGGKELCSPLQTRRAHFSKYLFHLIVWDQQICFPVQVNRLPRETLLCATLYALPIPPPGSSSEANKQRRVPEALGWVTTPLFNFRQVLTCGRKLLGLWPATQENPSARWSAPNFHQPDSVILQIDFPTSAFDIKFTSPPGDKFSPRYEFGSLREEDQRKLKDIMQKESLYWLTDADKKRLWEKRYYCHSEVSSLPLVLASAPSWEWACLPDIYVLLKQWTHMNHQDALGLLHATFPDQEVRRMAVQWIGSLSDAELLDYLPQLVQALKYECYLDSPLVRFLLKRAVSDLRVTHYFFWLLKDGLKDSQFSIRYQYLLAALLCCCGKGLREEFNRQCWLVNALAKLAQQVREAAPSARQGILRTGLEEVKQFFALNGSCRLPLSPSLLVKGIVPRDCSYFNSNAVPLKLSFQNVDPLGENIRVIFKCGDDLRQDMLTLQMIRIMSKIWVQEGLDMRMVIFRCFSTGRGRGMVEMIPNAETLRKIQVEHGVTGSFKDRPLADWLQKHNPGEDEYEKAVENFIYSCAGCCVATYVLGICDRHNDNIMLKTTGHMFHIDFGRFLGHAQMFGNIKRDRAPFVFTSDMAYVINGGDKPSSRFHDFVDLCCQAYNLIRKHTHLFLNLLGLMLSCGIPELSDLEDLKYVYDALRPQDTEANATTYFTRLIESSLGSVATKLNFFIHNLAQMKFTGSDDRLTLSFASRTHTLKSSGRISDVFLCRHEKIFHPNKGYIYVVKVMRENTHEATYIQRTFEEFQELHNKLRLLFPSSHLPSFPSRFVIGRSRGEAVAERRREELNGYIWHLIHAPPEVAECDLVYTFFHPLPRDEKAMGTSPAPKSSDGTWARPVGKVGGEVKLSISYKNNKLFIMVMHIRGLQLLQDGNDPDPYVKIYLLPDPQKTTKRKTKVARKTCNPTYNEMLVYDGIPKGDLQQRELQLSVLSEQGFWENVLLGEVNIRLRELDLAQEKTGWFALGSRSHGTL

Regarding `Cn1cc(-n2cnc3c(NCc4nc5cc(Cl)c(Cl)cc5[nH]4)nc(N4CCOCC4)nc32)cn1`, in assay [1], the % of inhibition came out at 64.1%. For `COCC(=O)NC/C=C/c1ccc2ncnc(Nc3ccc(Oc4ccc(C)nc4)c(C)c3)c2c1` [CP-724714], the % of control in assay [2] is 100%. In the case of `CNC(=O)Nc1ccc(-c2nc(N3CC4CCC(C3)O4)c3cnn(C4CCC5(CC4)OCCO5)c3n2)cc1`, in [3], the % of inhibition was -6%. The % of control in [4] was 100%.

In turn, `Cc1cc([C@@H](C)Nc2ccccc2C(=O)O)c2nc(N3CCOCC3)cc(=O)n2c1` [AZD-6482] registered a % of control in assay [5] of 100%. For `CC[C@@H]1[C@H](F)C(=O)N[C@@H]1COc1nccc2cc(C(N)=O)c(OC)cc12` [ZIMLOVISERTIB], the % of inhibition in assay [6] was 1.87%; in assay [7], 2.9%. Consider `CNCCN1CCC(c2cc(CN(C)C(=O)c3cccc(Oc4ccccc4)c3)ccn2)CC1`, for which the % of growth rate in assay [8] is -24.1%. `C=CC(=O)Nc1cccc(C(=O)Nc2ccc(Nc3cc(-c4[nH]c(SC)nc4C)ccn3)cc2)c1`: the % of control in [9] (at 1 µM) amounted to 81%; in [9] (at 5 µM), 80%. As for `COc1cc(Nc2nc(C)cc(-c3cnn4nc(OC)ccc34)n2)cc(C(F)(F)F)c1`, the % of control in assay [10] was 74%.

For `Cc1cc(C)cc([C@H]2c3cc(C)ccc3NC(=O)CN2C(=O)c2ccc(Br)s2)c1`, the % of activity came to 102% in assay [11] (at 1 µM) and 96.7% in assay [11] (at 10 µM). For `Nc1cnc(N2CCc3cc(S(=O)(=O)Nc4c(F)cc(Cl)cc4F)cc(N4CCCC4=O)c32)nc1` [TP-020n], the % of control in assay [12] is 100%. `CC(=O)Nc1cccc(-n2c(=O)n(C3CC3)c(=O)c3c(Nc4ccc(I)cc4F)n(C)c(=O)c(C)c32)c1` returned a % of control in [13] of 109%. In the case of `COc1cc(N(C)c2ccnc3ccc(C(F)(F)F)cc23)cc(OC)c1OC`, the % binding in assay [14] stood at 90%.
